Data on one molecule can be found in patent publication US8895032B2, “Dendritic nano-antioxidants” (Central Michigan University, priority 2009, dated 2014).

Molecules are shown by their SMILES.

The nature of data set [1]: DPPH radical assay. The following applies: read-out: DPPH IC50 at 120 min; Example 15. On the procedure:
The DPPH assay was one of three electron transfer (ET) assays used to determine the antioxidant potential of compound 1 (described in Example 6) in comparison to its monomeric counterpart (syringaldehyde) as well as popular antioxidants. In an ET assay, an antioxidant donates electron(s) to a molecular probe, thus reducing it. From the assay, thermodynamic conversion of antioxidant to antioxidant radical (oxidation) is measured during a fixed time period.
The reduction of DPPH radical was determined for ascorbic acid, Trolox, syringaldehyde, and the compound 1 described in Example 6 as previously reported (Brand-Williams, et al. Lebensm.-Wiss U.-Technol. 1995, 28, 25-30, incorporated herein by reference in its entirety). In the DPPH assay, DPPH• radical was reduced by the antioxidant in methanol (Brand-Williams, et al. Lebensm.-Wiss U.-Technol. 1995, 28, 25-30, incorporated herein by reference in its entirety). […] The DPPH reagent was made in methanol. Antioxidant sample (10 μL) was added to 1.0 mL of reagent and the absorbance was monitored at 515 nm until a plateau was reached. Antioxidant concentrations were 50 μM syringaldehyde, 12.5 μM Trolox and ascorbic acid, and 5 μM compound 1. All samples were made in methanol and run in triplicates at room temperature.
The DPPH• scavenging capacity of each antioxidant was evaluated from the plot of the percentage DPPH• remaining when the kinetics reached a steady state as a function of the molar ratios of antioxidant to DPPH•. […] Using the curve, EC50 (the amount of antioxidant necessary to decrease the initial DPPH• concentration by 50%), antiradical power (1/EC50, ability to reduce the DPPH•), reaction stoichiometry (EC50×2, the concentration of antioxidant required to reduce 100% of DPPH• radical), and the number of reduced DPPH• per antioxidant molecule (1/stoichiometry) for each antioxidant were calculated as previously described (Brand-Williams, et al. Lebensm.-Wiss U.-Technol. 1995, 28, 25-30, incorporated herein by reference in its entirety) and are depicted in Table 1.
Antioxidant capacity of the compounds was assessed by the DPPH assay (Brand-Williams, et al. Lebensm. Wiss. Technol. 1995, 28, 25, incorporated herein by reference in its entirety). […] In FIG. 22, control with methanol is (X, dashed); compound 1 is (□), compound 2 is (•), compound 3 is (◯), and Trolox (Δ). All antioxidant concentrations were 5 μM.
The free-radical scavenging ability of the antioxidants was evaluated by the DPPH assay, as described above in Example 7.

Data set [2] relates to Human LDL. Put plainly: Protection of LDL from AAPH oxidation (agarose gel electrophoresis). It counts as biochemical. The following applies: 1-30 μM, 20 mM AAPH, 21 h, 37° C. From the text: The antioxidant activity of compounds 1, 2, and 3 towards biomolecules was examined by studying their ability to protect LDL, fatty acid, and DNA from free radicals. For LDL, AAPH was used to induce free radical damage. AAPH was used instead of copper (Cu^2) ion for LDL oxidation so that the free radical scavenging activity of the antioxidants could be measured without any pro-oxidant interference caused by metal ions (Salah, N. et al. Arch. Biochem. Biophys. 1995, 322, 339, incorporated herein by reference in its entirety). All solutions were made in ultra-pure water.
Protection of LDL from AAPH free radicals by the antioxidant decreased the anodic shift in a dose-dependent manner (FIG. 23). […] The increased hydrophobicity of compound 3 may be partly responsible for its improved LDL protection over compound 2.
The antioxidant activity of the antioxidants towards biomolecules was examined by studying their ability to protect LDL, lysozyme, and DNA from free radicals. For LDL, AAPH was used to induce free radical damage. AAPH was used instead of Cu^2+ for LDL oxidation so that the free radical scavenging activity of the antioxidants could be measured without any pro-oxidant interference caused by metal ions. The oxidation of human low-density lipoprotein was used as a model for evaluating the ability of the G1 dendrimers as chain-breaking antioxidants for lipid. Oxidation of LDL leads to changes in both the lipid and the protein moieties of the lipoprotein particle. Lipid peroxidation in LDL has been evaluated by a variety of methods. Due to the complexity of events that occur in lipoprotein oxidation, the electrophoretic migration pattern of oxidized LDL is one of the best methods to evaluate the extent of lipoprotein oxidation. LDL was incubated with 20 mM AAPH and increasing concentrations of the G1 dendrimers (0-37 μM in PBS) for 21 h at 37° C. The mixture was then subjected to agarose gel electrophoresis using the Ciba Corning Clinical Electrophoresis System. The agarose gel was stained with Fat Red 7B. In FIG. 30A (top), lane 1 is native LDL, and lanes 2-8 are AAPH-oxidized LDL with 0, 37, 18.5, 9, 4.5, 2 and 1 μM compound 4, respectively. In FIG. 30B (bottom), lane 1 is native LDL, and lanes 2-8 are AAPH-oxidized LDL with 0, 37, 18.5, 9, 4.5, 2 and 1 μM quercetin or Trolox, respectively.

Data set [3] concerns plasmid DNA pBR 322. Put plainly: Protection of plasmid DNA from AAPH damage (agarose electrophoresis). It counts as biochemical. As to conditions: 10 mM AAPH, 37° C., 4 h. How it is done:
The effectiveness of the three compounds to protect DNA from AAPH damage was also determined. The plasmid DNA pBR 322 was incubated with AAPH (final concentration 10 mM) at 37° C. for 4 h with or without antioxidants (final concentrations, 0.35-45 μM), after which the samples were subjected to agarose electrophoresis (Sakihama, Y., et al. Toxicology 2002, 177, 67, incorporated herein by reference in its entirety). […] In the absence of AAPH, pBR 322 was mostly in its supercoiled (S) form (small amount of open circular, O, form was also visible, lane 1 FIG. 25). After reaction with AAPH, the DNA was transformed almost entirely into its open circular form (lane 2, FIG. 25). […] No protection was obtained for both compound 1 and quercetin below 5 μM (lanes 7-10, FIG. 25). […] Compound 3 as well as Trolox were ineffective at all concentrations used in the experiment (0.35-45 μM).
Protection of DNA from free radical damage by the antioxidant dendrimers (compounds 4, 5, and 1) was also evaluated. Plasmid DNA (pBR 322) samples, were incubated with AAPH (final concentration 10 mM) at 37° C. for 4 h with antioxidants (final concentrations, 0.35-45 μM) and subjected to agarose electrophoresis. […] The native DNA was mostly in its supercoiled (S) form (small amount of open circular, O, form was also visible, lane 1, FIG. 31). In the presence of AAPH, the DNA was transformed almost entirely into its O form (lane 2, FIG. 31). […] Negligible DNA protection was afforded by all three dendrimers at ≦2.5 μM (lanes 7-10, FIG. 31). Under similar conditions, Trolox as well as the starting materials for dendrimer synthesis were ineffective at all concentrations.

Data set [4] deals with pBR 322 DNA with Cu2+. Put plainly: Pro-oxidant effect: oxidation of DNA with copper (II) ion. The following applies: 10 μM Cu2+, 37° C., 1 h. How it is done: The pro-oxidant effect of compounds 1, 2, and 3 was examined by oxidation of DNA with copper (II) ion. pBR 322 was incubated with 10 μM Cu^2+ at 37° C. for 1 h in the presence of compound 1, 2, or 3 (final concentrations between 0.35 and 45 μM). […] Lane 1 is native DNA, and lanes 2-10 are Cu^2+-oxidized DNA with 0, 45, 23, 11, 5, 3, 1.5, 0.7, and 0.35 μM antioxidant, respectively.
This was performed by co-incubation of DNA (pBR 322), copper (II) ion and antioxidant. […] This ultimately forms DNA-Cu(I)OOH, initiating a free radical cascade by which DNA damage occurs. pBR 322 was incubated with 10 μM Cu^2+ in the presence of antioxidants (0-45 μM) at 37° C. for 1 h and subjected to agarose electrophoresis. […] In FIG. 32, lane 1 is native DNA, and lanes 2-10 are Cu^2+ oxidized DNA with 0, 45, 23, 11, 5, 3, 1.5, 0.7, and 0.35 μM antioxidant, respectively. […] However, it should be noted that physiological concentrations of copper are less than 10-20 μM in plasma and approximately […] for the cation in cells.

Consider `O=c1c(O)c(-c2ccc(O)c(O)c2)oc2cc(O)cc(O)c12` [quercetin], for which the IC50 in data set [1] was found to be 10 µM. For the same molecule, the “protection of LDL at all antioxidant concentrations” value in data set [2] is “ineffective”. Further, the DNA protection entry in data set [3] (5 μM antioxidant) was “not”; in data set [3] (below 5 μM antioxidant), “No protection”. In addition, in data set [4] (11-45 μM antioxidant), the “pro-oxidant DNA damage” value is recorded as “DNA damage was clearly observed”. Also, the pro-oxidant effect entry in data set [4] (between 3 and 5 μM antioxidant) is “more pronounced pro-oxidant effect than compound 1”.
